Source: patent US11754498B2, “Single AIEgen for multiple tasks: imaging of dual organelles and evaluation of cell viability” (THE HONG KONG UNIVERSITY OF SCIENCE AND TECHNOLOGY, priority 2019, dated 2023)

How the values were obtained:
[1] = test system: mitochondria in live HeLa cells; experiment: co-stain with mitochondrial probe MitoTracker Deep Red FM (MTDR), CLSM; format: cell-based; details: 2 μM TVQE, 0.2 μM MTDR
Method: (§1) To further confirm the staining location of TVQE, co-stain experiments with commercialized mitochondrial probe MitoTracker Deep Red FM (MTDR) and lipid-droplet probe Nile Red were performed.

[2] = absorption and fluorescence (FL) spectra, photophysical properties; format: physicochemical
Method: The absorption and fluorescence (FL) spectra of TVQE and TVQ in different solvents were tested and the results are shown in FIGS. 11A-11D and FIGS. 12A-12D.
Furthermore, fluorescence spectra of TVQE in EtOH and EtOH/hexane mixtures with different hexane fraction were shown in FIG. 11A. In pure EtOH, TVQE was weakly emissive with a quantum yield of 0.7%. With the increase of hexane volume content, the FL intensity increased gradually, accompanied with blue-shift in FL maximum from 673 nm to 637 nm, shown in FIG. 11B. When fH=90%, FL intensity reached the maximum with a quantum yield of 3% due to the formation of aggregates, indicating the AIE feature of TVQE. The FL intensity decreased when fH increased to 95%, probably due to the change of the morphology and size of the aggregates. […]

HeLa cells [3] = experiment: standard MTT assay, cytotoxicity in HeLa cells; format: cell-based; details: incubation at different concentrations for 24 h
Excerpt: Before bioimaging, the cytotoxicity of TVQE was first studied by standard MTT assay in HeLa cells.

live HeLa cells = experiment: CLSM imaging of live HeLa cells, in situ emission spectra and time tracking; format: cell-based
Method: Bioimaging experiments were then carried out in live HeLa cells. Based on the spectra imaging function of confocal laser scanning microscope (CLSM), the real color images of live HeLa cells stained with TVQE and in situ emission spectra were obtained (FIGS. 14A-14C and FIG. 15A). […] As designed, TVQE can be hydrolyzed by esterase to provide TVQ. It was speculated that the red emission came from TVQE while the blue emission was from the hydrolysate TVQ.
The in situ imaging performance of TVQE in live HeLa cells at different time points was then tracked and investigated (FIGS. 16A-16B and FIGS. 17A-17B). It could be observed that TVQE first stained mitochondria and emitted red fluorescence. Then, after about 5 min, lipid droplets in the blue channel were clearly illuminated. It should be noted that the fluorescence intensity in the red channel increased at the beginning, reached maximum at about 12 min, then decreased gradually. The fluorescence in the blue channel increased with increased time. […] In addition, the lipophilic hydrolysate tended to accumulate in lipid droplets gradually.

esterase = experiment: FL spectra of TVQE treated with active esterase in PBS; format: biochemical; details: room temperature
Method: To get insight into the mechanism of TVQE to esterase, the FL spectra of TVQE treated with active esterase in PBS at room temperature were measured and shown in FIG. 11D. At the beginning, only a weak emission peak at around 700 nm was detected. As treatment time progressed, the fluorescence at about 520 nm increased gradually, which was consistent with the FL spectra of TVQ in PBS, depicted in FIG. 12B.

[4] = test system: lipid droplets in live HeLa cells; experiment: co-stain with lipid-droplet probe Nile Red, CLSM; format: cell-based; details: 2 μM TVQE, 1 μM Nile Red
Method: as §1

HeLa cells [5] = experiment: flow cytometry of live, early apoptotic, late apoptotic and dead cells stained by TVQE; format: cell-based
Method: As esterase activity can reflect cell viability, an investigation was conducted to determine whether TVQE could be used to evaluate cell viability. […] In apoptotic cells, the esterase activity decreased, so that the emission in the blue channel was much weaker than that in live cells. When HeLa cells were treated with 10 mM H2O2 for 1 h and 4.5 h, early and late apoptotic HeLa cells could be clearly and differentially visualized (FIGS. 18 and 19). […] However, nearly no blue-emissive fluorescence signal but strong red emission was detected in dead cells because of the inactivated esterase activity. […] The fluorescence changes in both blue and red channels of cells in different states were obtained from flow cytometry (Becton Dickinson FACSAria Mu). Referring to FIG. 20C, numerical values in the cyan region, e.g., mean fluorescent intensity values around 3.2×10^4 and 650 in the blue and red channels, respectively correspond to cells that were alive, numerical values in the red region, e.g., mean fluorescence intensity values around 1.4×10^4 and 780 in the blue and red channels, respectively, correspond to cells in early apoptotic stages, numerical values in the orange region, e.g., mean fluorescence intensity values around 1700 and 4200 in the blue and red channels, respectively, correspond to cells in the late apoptotic stages, and numerical values in the green region, e.g., mean fluorescence intensity values around 780 and 1.5×10^4 in the blue and red channels, respectively, correspond to cells that were dead.
Flow cytometry is a widely used tool for statistical analysis. It has different laser sources and is suitable for simultaneous detection of multichannel fluorescence signals. A flow cytometry assay was performed to monitor the fluorescence changes in both red and blue channels of cells at different physiological stages. […] Compared with live cells, the blue emission in early apoptotic cells was a little weaker. […] The red emission in dead cells was stronger in comparison with late apoptotic cells.

[6] = live HeLa cells stained with 2 μM TVQE, in situ emission spectra
[7] = cells in early apoptotic stages (10 mM H2O2)
[8] = cells in the late apoptotic stages (10 mM H2O2)

## CC(=O)Oc1ccc(C[n+]2ccc(/C=C/c3ccc(N(c4ccccc4)c4ccccc4)cc3)c3ccccc32)cc1 [TVQE]
[1]
  co-localization coefficient with MTDR: 0.9
[2]; EtOH
  Stokes shift: 123 nm
  Φ (fluorescence quantum yield): 0.7%
  ε (molar absorptivity at maximum absorption wavelength): 18900 M⁻¹ cm⁻¹
  λabs (absorption maximum): 548 nm
  λem (emission maximum): 671 nm
[2]; Hexane/EtOH = 9/1
  Stokes shift: 131 nm
  ε (molar absorptivity at maximum absorption wavelength): 18800 M⁻¹ cm⁻¹
  λabs (absorption maximum): 527 nm
  λem (emission maximum): 656 nm
[2]; Hexane/EtOH = 9/1 (fH=90%)
  Φ (fluorescence quantum yield): 3%
[2]; THF
  Stokes shift: 156 nm
  Φ (fluorescence quantum yield): 1.3%
  ε (molar absorptivity at maximum absorption wavelength): 16600 M⁻¹ cm⁻¹
  λabs (absorption maximum): 522 nm
  λem (emission maximum): 678 nm
[2]; Tol
  Stokes shift: 125 nm
  Φ (fluorescence quantum yield): 6.6%
  ε (molar absorptivity at maximum absorption wavelength): 17300 M⁻¹ cm⁻¹
  λabs (absorption maximum): 534 nm
  λem (emission maximum): 659 nm
[2]; solid state
  fluorescence emission: 739 nm
  quantum yield: 2.3%
HeLa cells [3]
  viability of HeLa cells: higher than 85%
Live HeLa cells; [6]
  blue emission inside cells: 480 nm
  red emission inside cells: 650 nm
Live HeLa cells; live HeLa cells, 2 μM TVQE
  time after which lipid droplets in the blue channel were clearly illuminated: about 5 min
  time at which fluorescence intensity in the red channel reached maximum: about 12 min
esterase; active esterase (1 U/mL) in PBS
  hydrolysis by esterase: could be hydrolyzed to TVQ with blue emission by esterase
esterase; esterase in PBS
  fluorescence increasing gradually as treatment time progressed: about 520 nm
esterase; esterase in PBS, beginning of treatment
  emission peak at the beginning: around 700 nm
[4]
  co-localization coefficient with Nile Red: 0.87
HeLa cells [5]; [7]
  mean fluorescence intensity, blue channel: around 1.4×10^4
  mean fluorescence intensity, red channel: around 780
HeLa cells [5]; [8]
  mean fluorescence intensity, blue channel: around 1700
  mean fluorescence intensity, red channel: ~4200
HeLa cells [5]; cells that were alive
  mean fluorescent intensity, blue channel: around 3.2×10^4
  mean fluorescent intensity, red channel: ~650
HeLa cells [5]; cells that were dead
  mean fluorescence intensity, blue channel: around 780
  mean fluorescence intensity, red channel: ~1.5×10^4
